Laboratory results: patent US20120296090A1, “Drug Repositioning Methods For Targeting Breast Tumor Initiating Cells” (The Methodist Hospital Research Institute, priority 2011, published 2012)
“Also recorded” adds a separate entry of the source.

Legend:
human breast cancer TICs [1] = experiment: mammosphere formation efficiency assay on triple-negative cancer cell lines; format: cell-based; details: at least two triple-negative cancer cell lines
Text: (§1) Thus, the proposed drug-repositioning platform consists of CSB model, bioinformatics software, and drug information databases. Among the twenty-one drug candidates identified in this study, three drugs, i.e., sunitinib (Sutent®, Pfizer Oncology, New York, N.Y., USA), dasatinib (Sprycel®, Bristol-Myers Squibb, Princeton, N.J., USA) and chloroquine (Aralen®, sanofi-aventis, US, LLC, Bridgewater, N.J., USA) were further analyzed for their in vitro and in vivo effects on human breast cancer TICs, and in murine xenograft models. […] As a result of this finding, dasatinib is now currently in Phase II clinical trials for advanced breast cancer to assess the efficacy of this drug for inhibiting TICs.

SUM159 cells = experiment: limiting dilution transplantation assay; format: in vivo; details: SUM159 cells treated overnight, transplanted 200,000 cells/mouse; vehicle control 9 of 12
Experimental: (§2) The bioinformatics systems-based methods described herein also identified a further subset of ten drugs that were subsequently tested in vitro and in vivo for their ability to inhibit breast TICs. These in silico results were first confirmed by in vitro studies that evaluated the effects of these repositioned drugs on mammosphere-forming efficiency. […] Next, limiting dilution transplantation assays were performed, whereupon SUM159 cells were treated with […] overnight and then transplanted the next day 200,000 cells/mouse (single sided).

human breast cancer TICs [2] = experiment: dilute transplantation assay in murine xenograft models; format: in vivo
Text: as §1

breast TICs = experiment: inhibition of breast TICs in vitro and in vivo (FIG. 3, human breast cancer xenograft mammosphere formation efficiency); format: cell-based
BT549 = experiment: mammosphere-forming efficiency (MSFE) assay; format: cell-based, human; details: 10 nM and 1 μM, after a single treatment dose
Experimental: as §2

SUM159 = experiment: mammosphere-forming efficiency (MSFE) assay; format: cell-based, human; details: 10 nM and 1 μM, after a single treatment dose
Experimental: as §2

MCF7 = details: cited from earlier work; for cell growth: considered dosages (<10 μM); for cell death / apoptosis: higher dosages, MCF7
[3] = tested on: HT-29, human colorectal adenocarcinoma; experiment: Cell proliferation assay (CellTiter 96 AQueous One Solution); format: cell-based; details: colorectal cancer cell line HT-29; 48 hours of treatment
Experimental: (§3) Five tumor cell lines were used in these studies: HT-29, human colorectal adenocarcinoma; H69, human small cell lung cancer (SCLC); H226, human non-small cell lung cancer (NSCLC) (squamous carcinoma); LNCaP, human prostate carcinoma; and U87-luc glioblastoma cell line. H69, H226, and LNCaP cells were grown in American Type Culture Collection (ATCC)-formulated RPMI-1640 Medium (ATCC, cat#30-2001; […]) supplemented with 10% fetal bovine serum (FBS) and 1% penicillin/streptomycin (Invitrogen, Carlsbad, Calif., USA). HT-29 cells were cultured in ATCC-formulated McCoy's 5a Medium (Modified) (ATCC, cat#30-2007). […]
(§4) Cell proliferation was analyzed using CellTiter 96 AQueous One Solution Cell Proliferation Assay (Promega, Madison, Wis., USA) according to the manufacturer's instructions. […] After 3-hrs' incubation, absorbance at 490 nm was measured using the FLUOstar™ Omega Microplate Reader (BMG LABTECH, Cary, N.C., USA). Background absorbance (490 nm) was corrected by subtracting the average 490 nm absorbance of the “no cell” control wells from absorbance values obtained for each of the test wells. The proliferative ratio (% surviving cells) in each sample was calculated by dividing the corrected absorbance value of treated cells by that of control cells with no drug treatment. The results were expressed as mean with standard errors from two independent studies.

[4] = tested on: H226, human non-small cell lung cancer (NSCLC); experiment: as above; format: cell-based
Experimental: as §3, §4

| Structure (SMILES) | cell growth (MCF7) | cell death / apoptosis (MCF7) | further results |
| --- | --- | --- | --- |
| CCN(CC)CCCC(C)Nc1ccnc2cc(Cl)ccc12 (stereo not shown) [chloroquine] | – | – | anti-TICs effects (mammosphere formation efficiency assay) (human breast cancer TICs [1]): anti-TICs effects; tumor initiation rate (xenografts growing within 10 weeks) (SUM159 cells): 1 of 12; anti-cancer effects in animal models (dilute transplantation assay) (human breast cancer TICs [2]): anti-cancer effects; inhibiting breast TICs (breast TICs): effective in inhibiting breast TICs; MSFE (mammosphere-forming efficiency) (BT549): dramatic reduction; MSFE (mammosphere-forming efficiency) (SUM159): dramatic reduction |
| CC/C(=C(\c1ccccc1)c1ccc(OCCN(C)C)cc1)c1ccccc1 [tamoxifen] | significantly inhibited cell growth | induce apoptosis at higher dosages; also recorded: induced cell death at higher dosages | – |
| C[C@]12CC[C@@H]3c4ccc(O)cc4C[C@@H](CCCCCCCCC[S+]([O-])CCCC(F)(F)C(F)(F)F)[C@H]3[C@@H]1CC[C@@H]2O (stereo partly shown) [fulvestrant] | significantly inhibited cell growth | does not induce any cell death; also recorded: did not induce the cell death | – |
| O=C(c1ccc(OCCN2CCCCC2)cc1)c1c(-c2ccc(O)cc2)sc2cc(O)ccc12 [raloxifene] | significantly inhibited cell growth | induce apoptosis at higher dosages; also recorded: induced cell death at higher dosages | – |
| COc1cc2ncnc(Nc3ccc(F)c(Cl)c3)c2cc1OCCCN1CCOCC1 [gefitinib] | – | – | effect on cell proliferation [3]: positive effects; effect on cell proliferation [4]: positive effects |
| CC(=O)O[C@H]1C(=O)[C@@]2(C)[C@H]([C@H](OC(=O)c3ccccc3)[C@]3(O)C[C@H](OC(=O)[C@H](O)[C@@H](NC(=O)c4ccccc4)c4ccccc4)C(C)=C1C3(C)C)[C@]1(OC(C)=O)CO[C@@H]1C[C@@H]2O [paclitaxel] | significantly inhibited cell growth | induce apoptosis at higher dosages; also recorded: some experiments also cause the cell death | – |
